Test system: H929 target cells
Experiment: Protein 1 induced ADCC after pretreatment of PBMCs with different concentrations (H929 lysis, flow cytometry)
Format: cell-based, human
Settings: for % lysis with Protein 1: 0.1 nM Protein 1, % change from DMSO control + Protein 1; for % lysis without Protein 1: % change from DMSO control
Procedure: PBMCs from two healthy donors were pre-incubated for 24 hours or 48 hours in the presence of CC-92480 or a DMSO control. CC-92480 was added at 0.001 nM, 0.01 nM, 0.1 nM, 1 nM and 10 nM concentrations. After pretreatment, PBMCs were incubated for an additional 18 hours or overnight in the presence of H929 target cells with or without the addition of 0.1 nM of Protein 1. Samples were analyzed via flow cytometry for H929 depletion. Specific lysis was calculated as following: (1−((test sample H929 count)/(H929 count in DMSO control without Protein 1)))*100. PBMCs from two healthy donors were pre-incubated for 24 hours or 48 hours in the presence of CC-220 or a DMSO control. CC-220 was added at 0.01 nM, 0.1 nM, 1 nM, 10 nM and 100 nM concentrations. After pretreatment, PBMCs were incubated for an additional 18 hours or overnight in the presence of H929 target cells with or without the addition of 0.1 nM of Protein 1. Samples were analyzed via flow cytometry for H929 depletion. Specific lysis was calculated as following: (1−((test sample H929 count)/(H929 count in DMSO control without Protein 1)))*100. […] Data is normalized to % change of sample from the control treated DMSO sample+/−Protein 1. For % lysis without Protein 1, the control sample is PBMC pretreated with DMSO+H929. For % lysis with Protein 1, the control sample is PBMC pretreated with DMSO+H929+0.1 nM of Protein 1.

[1] = pretreatment 1 nM, 24 hour, donor 1
[2] = pretreatment 1 nM, 24 hour, donor 2
[3] = pretreatment 1 nM, 48 hour, donor 1
[4] = pretreatment 1 nM, 48 hour, donor 2
[5] = pretreatment 100 nM, 24 hour, donor 1
[6] = pretreatment 100 nM, 24 hour, donor 2
[7] = pretreatment 100 nM, 48 hour, donor 1
[8] = pretreatment 100 nM, 48 hour, donor 2

## O=C1CC[C@H](N2Cc3c(OCc4ccc(CN5CCOCC5)cc4)cccc3C2=O)C(=O)N1 [CC-220, (S)-3-(4-((4-(Morpholinomethyl)benzyl)oxy)-1-oxoisoindolin-2-yl)piperidine-2,6-dione]
PBMCs pretreated 24 or 48 hours at different concentrations, 0.1 nM Protein 1 overnight
  Protein 1 induced ADCC (H929 lysis): enhances
[1]
  % lysis difference with Protein 1: 42.45%
  % lysis with Protein 1: 8.43%
  % lysis without Protein 1: −34.02%
[2]
  % lysis difference with Protein 1: 74.36%
  % lysis with Protein 1: 46.34%
  % lysis without Protein 1: −28.02%
[3]
  % lysis difference with Protein 1: 59.87%
  % lysis with Protein 1: 21.68%
  % lysis without Protein 1: −38.19%
[4]
  % lysis difference with Protein 1: 35.72%
  % lysis with Protein 1: 73.47%
  % lysis without Protein 1: 37.75%
[5]
  % lysis difference with Protein 1: 50.39%
  % lysis with Protein 1: 23.24%
  % lysis without Protein 1: −27.15%
[6]
  % lysis difference with Protein 1: 55.61%
  % lysis with Protein 1: 16.50%
  % lysis without Protein 1: −39.11%
[7]
  % lysis difference with Protein 1: 85.48%
  % lysis with Protein 1: 43.07%
  % lysis without Protein 1: −42.41%
[8]
  % lysis difference with Protein 1: 36.40%
  % lysis with Protein 1: 66.54%
  % lysis without Protein 1: 30.14%

From patent US20230364230A1, “COMBINATION THERAPY FOR CANCER” (ENGMAB SÀRL, priority 2020, published 2023)
